Results published in patent publication US6555733B2, “Genes coding for amino acid deacetylases with specificity for N-acetyl-L-phosphinothricin, their isolation and use” (priority 1996, dated 2003).

Assays:
[1] = tested on: N-acetyl-PPT deacetylase (Deac1 protein); assay: Nonradioactive test, substrate specificity of purified deacetylase (amino acid analyzer); type: biochemical, Stenotrophomonas sp.; conditions: 25 mM substrate; for Rel. activity: 60 min, 28 °C, 5 μg enzyme, hippuric acid set equal to 100%
Protocol: (2) Nonradioactive test: To investigate the substrate specificity, 5 μg each of purified enzyme were incubated for 60 min. at 28° C. in 20 μl batches in PBS buffer with, in each case, 25 mM of a certain N-acetyl- or N-acylamino acid. The samples were then measured in an amino acid analyzer (Biotronic LC 5001) for formation of the free amino acids. The specific activities were determined in [nmol of amino acid/min/mg of protein]. For the N-acetyl-PPT deacetylase, a pH optimum of pH=8 (see Tab. 1) and a temperature optimum of 37° C. (see Tab. 2) were determined. […] By addition of 1 mM CoCl2, the enzyme activity could be increased by about 20%.

[2] = tested on: N-acetyl-PPT deacetylase (Deac1 protein); assay: Radioactive test of purified N-acetyl-PPT deacetylase (Deac1) with [14C]-N-acetyl-L-PPT, HPLC; type: biochemical, Stenotrophomonas sp.; conditions: for Km: substrate [14C]-N-acetyl-L-PPT 0.01-1 mM, pH=8.0, 1 mM CoCl2, 3-fold determinations; for Spec. activity: substrate [14C]-N-acetyl-L-PPT
deac2 gene product = assay: Conversion of N-acetylated amino acids by permeabilized E. coli XLI blue cells with pGK81; type: cell-based, Comamonas acidovorans; conditions: 25 mM, 3 hours at 30 °C
Protocol: To investigate the substrate specificity of the deac2 gene product from Comamonas acidovorans, cells of E. coli strain XLI blue permeabilized by toluene/ethanol treatment were used with and without the vector pGK81. The induction of the deac2 gene repressed by the Lac^i repressor present in this strain could be achieved by IPTG treatment. The permeabilized cells were incubated for 3 hours at 30° C. with various N-acetylated amino acids (final concentration 25 mM) and the supernatants were investigated with the aid of an amino acid analyzer. It turned out here that more than 20% of the N-acetylornithine made available was converted. For N-acetyl-phosphinothricin too, an increasing deacetylation to phosphinothricin, analogous to the concentration of N-acetylphosphinothricin employed, could be found (Table 7).
The concentrations of the N-acetylated amino acids employed and the amino acids formed by deacetylation are indicated.

[3] = tested on: leaves of tobacco plants (35S promoter-deac1 transformants, nontransgenic controls); assay: Drop experiment on leaves of pPCVKDEAC1 tobacco plants and nontransgenic control plants; type: in vivo, Nicotiana tabacum; design: key to Drop experiment, leaf symptoms: +++: severe necrosis; ++: marked damage; +: slight lightening; −: no symptoms
Description: The deac1 structural gene was recloned as a 1.4 kb BamHI/SalI PCT fragment into the binary vector pPCV801 (Koncz and Schell, 1986, Mol. Gen. Genet. 204: 383-396) under control of the 35S promoter. The resulting plasmid pPCVKDEAC1 (FIG. 2) with the expression vector 35S promoter-deac1-structural gene-35S terminator was transformed in Agrobacterium tumefaciens (strain ATHV) using standard methods. Pieces of tobacco leaf (Nicotiana tabacum) were transformed with the recombinant Agrobacteria according to the method of Horsch et al., 1985, Science 227: 1229-1231 and selected on kanamycin medium, 18 independent tobacco transformants were regenerated and tested for expression of the deacetylase in the leaves. In the case of activity of the protein in the transgenic plants, a sensitivity of the leaves to N-acetyl-PPT was to be expected, because the substance in the plant is then converted into the herbicidal active compound phosphinothricin on account of the enzymatic activity of the deacetylase.
In a drop experiment, the leaves of the transgenic plants and of a number of nontransgenic control plants were treated with 5 μl each of the following concentrations of N-acetyl-D,L-PPT: 4 mg/ml(=15 mM), 1 mg/ml(=3.75 mM), 0.4 mg/ml(=1.5 mM), 0.1 mg/ml(=0.38 mM). The treatment sites were examined for lightening or necrosis formation after 1-2 weeks. Simultaneously, the N-acetyl-PPT-specific deacetylase activity of the transformants, and also of the control plants, was measured in crude extracts. To do this, 100 mg each of leaf material were homogenized in 200 μl of PBS buffer, the cell debris was centrifuged off and the protein-containing supernatants were dialyzed overnight at 4° C. against the same buffer. 10 μl each of these samples were incubated with 0.1 mM [^14C]-N-acetyl-L-PPT overnight at 37° C. The batches were then analyzed in the HPLC, as described above, for formation of [^14C]-L-PPT.

[4] = tested on: flower buds of tobacco plants (tap1 promoter-deac1 transformants, NT Sam NN controls); assay: Flower bud treatment, induced male sterility in pPCVTDEAC1 tobacco plants; type: in vivo, Nicotiana tabacum
Description: Using standard methods, the tapetum-specific promoter of the tap1 gene from snapdragon (Antirrhinum majus) was fused in the vector pUC18 as a 2.2 kb EcoRI/BamHI fragment with the deac1 structural gene (1.4 kb BamHI/SalI-PCR fragment) and the 35S terminator. The expression cassette tap1 promoter-deac structural gene-35S terminator thus resulting was cloned into the binary vector pPCV801 as a 3.8 kb EcoRI fragment instead of the 35S promoter/terminator region (plasmid pPCVTDEAC1, FIG. 3). The transformation of tobacco was carried out as described in Example 4.
In the case of tapetum-specific expression of the deacetylase, it should be possible by treatment of the flower buds with N-acetyl-PPT to induce male-sterile flowers. The conversion of the PPT derivative into the herbicidal active compound phosphinothricin leads to selective damage to the tapetum tissue, by means of which the development of functional pollen is prevented.
In each case only one side of the inflorescences (the total area of the developing flower buds) was treated with N-acetyl-PPT, the other side of the influorescences remained untreated in order to ensure that the phenomena to be observed are not to be attributed to deformities of the respective plants. The treatment was carried out at a time at which the individual buds were not larger than 5 mm (active phase for tapetum promoter). The tobacco transformants and also a number of NT Sam NN control plants were treated 3× with 0.2% N-acetyl-D,L-PPT(=7.5 mM)/0.1% Genapol (wetting agent) within one week. After the blooming of the buds (about 9-11 days after conclusion of the treatment), the plants were investigated for the occurrence of male-sterile flowers.

For `CC(=O)N[C@@H](CC(C)C)C(=O)O` [N-Ac-leucine], the Rel. activity [1] was 33%.

`CC(=O)N[C@@H](CCP(C)(=O)O)C(=O)O` [N-acetyl-L-PPT, N-acetyl-L-phosphinothricin] was tested, and the “affinity below that for hippuric acid and N-acetyl-L-glutamate” value [1] was “approximately 50%”, the Rel. activity [1] was 43% and the Km [2] was 670 µM.

`[Cl-].[Cl-].[Co+2]` [CoCl2] was tested, and the “increase of enzyme activity” value [2] was “about 20%”.

For `O=C(O)CNC(=O)c1ccccc1` [Hippuric acid, N-benzoylglycine], the “conversion by the deacetylase (in words)” value [1] was “highest conversions” and the Rel. activity [1] was 100%.

Work on `CC(=O)NC(Cc1c[nH]c2ccccc12)C(=O)O` (stereo not shown) [N-Ac-tryptophan] yielded a Rel. activity [1] of 0.4%.

Molecule `CC(=O)N[C@@H](CCCN)C(=O)O` [N-Ac-ornithine] has a Rel. activity [1] of 37%.

`CC(=O)NCC(=O)O` [N-Ac-glycine] showed a Rel. activity [1] of 59%.

With `CSCCC(NC(C)=O)C(=O)O` (stereo not shown) [N-Ac-methionine] the Rel. activity [1] was 0%.

Molecule `CC(=O)N[C@H](C(=O)O)C(C)C` [N-Ac-valine] has a Rel. activity [1] of 2%.

`CC(=O)N[C@@H](CCCN)C(=O)O` [N-acetyl-ornithine, N-acetylornithine] was tested, and the “share of substrate made available that was converted” value (deac2 gene product) was “more than 20%”.

Work on `CC(=O)N[C@@H](Cc1ccc(O)cc1)C(=O)O` [N-Ac-tyrosine] yielded a Rel. activity [1] of 11%.

With `CC(=O)N[C@@H](CCC(N)=O)C(=O)O` [N-Ac-glutamine] the Rel. activity [1] was 30%.

With `CC(=O)NC(CCP(C)(=O)O)C(=O)O` (racemic) [N-acetyl-D,L-PPT, N-acetylphosphinothricin] the “Drop experiment, leaf symptoms” value ([3]; Control plant, 0.1 mg/ml) was “−”, the “Drop experiment, leaf symptoms” value ([3]; Control plant, 0.4 mg/ml) was “−” and the “Drop experiment, leaf symptoms” value ([3]; Control plant, 1 mg/ml) was “−”. For the same molecule, the “Drop experiment, leaf symptoms” value ([3]; Control plant, 4 mg/ml, 5 μl, after 1-2 weeks) was “−”, the “concentration to which leaves still react sensitively” value ([3]; constitutive expression of the deac gene, greenhouse plants (=0.2 mg/ml of L-enantiomer)) was 0.4 mg/mL and the “Drop experiment, leaf symptoms” value ([3]; plant pPCVK9, 0.1 mg/ml) was “−”. For the same molecule, the “Drop experiment, leaf symptoms” value ([3]; plant pPCVK9, 0.4 mg/ml) was “−”, the “Drop experiment, leaf symptoms” value ([3]; plant pPCVK9, 1 mg/ml) was “+” and the “Drop experiment, leaf symptoms” value ([3]; plant pPCVK9, 4 mg/ml) was “+++”. The “Drop experiment, leaf symptoms” value ([3]; plant pPCVK14, 0.1 mg/ml) was “−”, the “Drop experiment, leaf symptoms” value ([3]; plant pPCVK14, 0.4 mg/ml) was “−” and the “Drop experiment, leaf symptoms” value ([3]; plant pPCVK14, 1 mg/ml) was “+”. For the same molecule, the “Drop experiment, leaf symptoms” value ([3]; plant pPCVK14, 4 mg/ml) was “+”, the “Drop experiment, leaf symptoms” value ([3]; plant pPCVK15, 0.1 mg/ml) was “−” and the “Drop experiment, leaf symptoms” value ([3]; plant pPCVK15, 0.4 mg/ml) was “+”. For the same molecule, the “Drop experiment, leaf symptoms” value ([3]; plant pPCVK15, 1 mg/ml) was “+”, the “Drop experiment, leaf symptoms” value ([3]; plant pPCVK15, 4 mg/ml) was “++” and the “Drop experiment, leaf symptoms” value ([3]; plant pPCVK16, 0.1 mg/ml) was “−”. The “Drop experiment, leaf symptoms” value ([3]; plant pPCVK16, 0.4 mg/ml) was “−”, the “Drop experiment, leaf symptoms” value ([3]; plant pPCVK16, 1 mg/ml) was “+” and the “Drop experiment, leaf symptoms” value ([3]; plant pPCVK16, 4 mg/ml) was “+”. For the same molecule, the “Drop experiment, leaf symptoms” value ([3]; plant pPCVK17, 0.1 mg/ml) was “−”, the “Drop experiment, leaf symptoms” value ([3]; plant pPCVK17, 0.4 mg/ml) was “−” and the “Drop experiment, leaf symptoms” value ([3]; plant pPCVK17, 1 mg/ml) was “+”. For the same molecule, the “Drop experiment, leaf symptoms” value ([3]; plant pPCVK17, 4 mg/ml) was “+”, the “Number of sterile or pollen-reduced flowers, treated” value ([4]; Control plant, 3x 0.2% N-acetyl-D,L-PPT/0.1% Genapol within one week) was 0 and the “Number of sterile or pollen-reduced flowers, treated” value ([4]; plant pPCT16) was 10. The “Number of sterile or pollen-reduced flowers, treated” value ([4]; plant pPCVT14) was 18, the “Number of sterile or pollen-reduced flowers, treated” value ([4]; plant pPCVT15) was 0 and the “induction of male-sterile flowers (in words)” value ([4]; tapetum-specific expression, buds treated with 2 mg/ml (=1 mg/ml of L-enantiomer), greenhouse plants) was “induction of male-sterile flowers was achieved”.

With `CC(=O)N1CCCC1C(=O)O` (stereo not shown) [N-Ac-proline] the Rel. activity [1] was 0%.

Work on `CC(=O)N[C@@H](Cc1cnc[nH]1)C(=O)O` [N-Ac-histidine] yielded a Rel. activity [1] of 43%.

Work on `CC(=O)NC(CO)C(=O)O` (stereo not shown) [N-Ac-serine] yielded a Rel. activity [1] of 4%.

With `CC(=O)N[C@@H](CCC(=O)O)C(=O)O` [N-Ac-glutamic acid, N-acetyl-L-glutamate] the “conversion by the deacetylase (in words)” value [1] was “highest conversions” and the Rel. activity [1] was 100%.

With `CC(=O)NC(Cc1ccccc1)C(=O)O` (stereo not shown) [N-Ac-phenylalanine] the Rel. activity [1] was 24%.

B1: N-acetyl-PPT deacetylase: deacetylase from Stenotrophomonas sp., 454 amino acids (SEQ ID NO:2), purified from E. coli as GST fusion cleavage product (protein)
chain: MIRKTVLLTALSCALASATATAAEGQRPEVEAAAARLQRQVVEWRRDFHQHPELSNREVRTAAKVAERLRAMGLQPQTGVAVHGVVAIIKGALPGPKIALRADMDALPVTEQTGLPFASTATAEYRGEKVGVMHACGHDAHTATLLGVADALVAMRDTLPGEVMLIFQPAEEGAPPPEQGGAELMLKEGLFKEFKPEAVFGLHVFSSVQAGQIAVRGGPLMAASDRFAITVNGRQTHGSAPWNGIDPIVAASDLIGTAQTIVSRRANLSKQPAVLTFGAIKGGIRYNIIPDSVEMVGTIRTFDPDMRKQIFADLRNVAEHTAAAHGATATTDIYEKDGNPATVNDPALTARMLPSLQAVVGKDNVYEPPLQMGSEDFSLYAQQVPAMFFFVGSTGAGIDPATAPSNHSPKFLLDEKALDVGLRALLQVSLDYLHGGKAG
modifications: Stenotrophomonas sp
B1 was tested, and the Spec. activity ([2]; 28 °C) was 9.6 nmol/min/mg of protein, the Spec. activity ([2]; 37 °C) was 16.8 nmol/min/mg of protein and the Spec. activity ([2]; 50 °C) was 14.9 nmol/min/mg of protein. For the same molecule, the Spec. activity ([2]; 60 °C) was 4.3 nmol/min/mg of protein, the Spec. activity ([2]; pH 6) was 2.4 mol/min/mg of protein and the Spec. activity ([2]; pH 8) was 12.0 mol/min/mg of protein. The Km [2] was 670 µM.
